Experimental findings from patent publication US11155557B2, “Pyrazolopyrimidine compounds and methods of use thereof” (Genentech, Inc., priority 2016, dated 2021) are described below.

In test [1] the target is isolated recombinant JAK1 kinase domain (Homo sapiens (Human), UniProt P23458). Kind of test: JAK1 enzyme assay (Caliper LabChip, Ki). In kind it is biochemical. Here is the method:
The activity of the isolated recombinant JAK1 and JAK2 kinase domain was measured by monitoring phosphorylation of a peptide derived from JAK3 ([…] fluorescently labeled on the N-terminus with 5-carboxyfluorescein) using the Caliper LabChip R technology (Caliper Life Sciences, Hopkinton, Mass.).

The subject of test [2] is JAK1-dependent STAT6 phosphorylation in BEAS-2B human bronchial epithelial cells. The experiment in a line: JAK1 pathway assay: IL-13 stimulated STAT6 phosphorylation in BEAS-2B cells. Format: cell-based. The settings on record: Homo sapiens, BEAS-2B, BEAS-2B cells, IL-13 stimulation; read-out: IL-13 p-STAT6 BEAS-2B IC50. In a few lines:
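BEAS-2B bronchial epithelial cells plated one day before, run in complete growth medium. Phospho-STAT6 in lysates measured by MesoScale Discovery; EC50 reported.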

The target in test [3] is isolated recombinant JAK2 kinase domain (Homo sapiens (Human), UniProt O60674). Kind of test: JAK2 enzyme assay (Caliper LabChip, Ki). As to conditions: read-out: JAK2 Ki.
Sequence of isolated recombinant JAK2 kinase domain (O60674 849-1124): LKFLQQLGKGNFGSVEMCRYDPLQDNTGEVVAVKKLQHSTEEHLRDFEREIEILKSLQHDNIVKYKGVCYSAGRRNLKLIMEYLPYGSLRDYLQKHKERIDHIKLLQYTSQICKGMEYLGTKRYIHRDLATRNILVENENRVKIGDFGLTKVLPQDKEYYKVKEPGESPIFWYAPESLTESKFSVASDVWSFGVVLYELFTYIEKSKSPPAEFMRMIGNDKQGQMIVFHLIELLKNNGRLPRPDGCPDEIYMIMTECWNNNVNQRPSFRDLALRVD

Sequence of isolated recombinant JAK1 kinase domain (P23458 875-1153): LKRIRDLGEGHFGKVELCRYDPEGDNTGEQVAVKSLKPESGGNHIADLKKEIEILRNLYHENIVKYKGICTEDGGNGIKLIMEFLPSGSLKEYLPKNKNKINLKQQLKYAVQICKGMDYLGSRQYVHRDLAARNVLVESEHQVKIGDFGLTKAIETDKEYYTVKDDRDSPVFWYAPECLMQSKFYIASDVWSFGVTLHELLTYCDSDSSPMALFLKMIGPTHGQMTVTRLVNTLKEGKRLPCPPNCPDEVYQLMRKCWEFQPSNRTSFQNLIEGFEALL

By Ki is commonly meant the equilibrium dissociation constant of an inhibitor or competing ligand from its target. As a reminder, the IC50 is the midpoint of a concentration-inhibition curve. For the compound `O=C(Nc1cn(C2COC2)nc1-c1cc2sncc2cc1OC(F)F)c1cnn2cccnc12` [Example 139, N-[3-[5-(difluoromethoxy)-1,2-benzothiazol-6-yl]-1-(oxetan-3-yl)pyrazol-4-yl]pyrazolo[1,5-a]pyrimidine-3-carboxamide], the inhibitory constant (Ki) in test [1] is 0.33 nM; in test [3], 0.21 nM. Moreover, in test [2], the IC50 was 10 nM.

For `N#CCn1cc(NC(=O)c2cnn3cccnc23)c(-c2cc3c(cc2OC(F)F)NCCS3)n1` [Example 140, N-[1-(cyanomethyl)-3-[6-(difluoromethoxy)-3,4-dihydro-2H-1,4-benzothiazin-7-yl]pyrazol-4-yl]pyrazolo[1,5-a]pyrimidine-3-carboxamide], the Ki in test [1] amounted to 0.09 nM; in test [3] it was 0.06 nM. Moreover, the IC50 in test [2] was found to be 4 nM.

Turning to `CN(C)C(=O)Cn1cc(NC(=O)c2cnn3cccnc23)c(-c2cc3cnsc3cc2OC(F)F)n1` [Example 143, N-[3-[6-(difluoromethoxy)-1,2-benzothiazol-5-yl]-1-[2-(dimethylamino)-2-oxo-ethyl]pyrazol-4-yl]pyrazolo[1,5-a]pyrimidine-3-carboxamide], the Ki amounted to 0.22 nM in test [1] and 0.97 nM in test [3]. Besides, the IC50 in test [2] is 13 nM.

For the compound `N#CCn1cc(NC(=O)c2cnn3cccnc23)c(-c2cc3c(cc2OC(F)F)NCCO3)n1` [Example 144, N-[1-(cyanomethyl)-3-[6-(difluoromethoxy)-3,4-dihydro-2H-1,4-benzoxazin-7-yl]pyrazol-4-yl]pyrazolo[1,5-a]pyrimidine-3-carboxamide], the Ki in test [1] was determined as 0.14 nM; in test [3], 0.11 nM. In addition, the IC50 in test [2] was 7 nM.

Consider `Cn1cc(NC(=O)c2cnn3cccnc23)c(-c2cc3c(cc2OC(F)F)NC2(COC2)CO3)n1` [Example 147, N-(3-(6-(difluoromethoxy)-2,4-dihydrospiro[benzo[b][1,4]oxazine-3,3′-oxetan]-7-yl)-1-methyl-1H-pyrazol-4-yl)pyrazolo[1,5-a]pyrimidine-3-carboxamide], for which the Ki came to 0.34 nM in test [1] and 0.32 nM in test [3]. Besides, the IC50 in test [2] was 14 nM.

For the compound `C[C@H]1CNc2cc(OC(F)F)c(-c3n[nH]cc3NC(=O)c3cnn4cccnc34)cc2O1` [Example 148, (S)—N-(3-(6-(difluoromethoxy)-2-methyl-3,4-dihydro-2H-benzo[b][1,4]oxazin-7-yl)-1H-pyrazol-4-yl)pyrazolo[1,5-a]pyrimidine-3-carboxamide], the Ki in test [1] is 0.51 nM; in test [3], 0.17 nM. Also, the half-maximal inhibitory concentration (IC50) in test [2] stood at 55 nM.

On to `Cn1cc(NC(=O)c2cnn3cccnc23)c(-c2cc3c(cc2OC(F)F)NCC(C)(C)O3)n1` [Example 149, N-(3-(6-(difluoromethoxy)-2,2-dimethyl-3,4-dihydro-2H-benzo[b][1,4]oxazin-7-yl)-1-methyl-1H-pyrazol-4-yl)pyrazolo[1,5-a]pyrimidine-3-carboxamide], for which the Ki came out at 1.33 nM in test [1] and 0.64 nM in test [3]. Also, the IC50 in test [2] came out at 43 nM.

As to `O=C(Nc1c[nH]nc1-c1cc2c(cc1OC(F)F)OCCO2)c1cnn2cccnc12` [Example 150, N-(3-(7-(difluoromethoxy)-2,3-dihydrobenzo[b][1,4]dioxin-6-yl)-1H-pyrazol-4-yl)pyrazolo[1,5-a]pyrimidine-3-carboxamide], the figures for the Ki in test [1] and in test [3] were 1.65 nM and 0.61 nM, respectively. In addition, the IC50 in test [2] was determined as 61 nM.

As for `O=C(Nc1c[nH]nc1-c1cc2c(cc1OC(F)F)SCCO2)c1cnn2cccnc12` [Example 151, N-(3-(6-(difluoromethoxy)-2,3-dihydrobenzo[b][1,4]oxathiin-7-yl)-1H-pyrazol-4-yl)pyrazolo[1,5-a]pyrimidine-3-carboxamide], the Ki came to 0.77 nM in test [1] and 0.25 nM in test [3]. Besides, the 50% inhibitory concentration (IC50) in test [2] came out at 30 nM.

For `O=C(Nc1c[nH]nc1-c1cc2sncc2cc1OC(F)F)c1cnn2cccnc12` [Example 152, N-(3-(5-(difluoromethoxy)benzo[d]isothiazol-6-yl)-1H-pyrazol-4-yl)pyrazolo[1,5-a]pyrimidine-3-carboxamide], the Ki in test [1] stood at 0.1 nM; in test [3], 0.06 nM. In test [2], the IC50 was found to be 4 nM.

As to `O=C(Nc1c[nH]nc1-c1cc2cnsc2cc1OC(F)F)c1cnn2cccnc12` [Example 153, N-(3-(6-(difluoromethoxy)benzo[d]isothiazol-5-yl)-1H-pyrazol-4-yl)pyrazolo[1,5-a]pyrimidine-3-carboxamide], the Ki in test [1] was determined as 0.15 nM; in test [3], 0.08 nM. Besides, in test [2], the IC50 is 5 nM.

`CC(C)OC(=O)n1cc(NC(=O)c2cnn3cccnc23)c(-c2cc3c(cc2OC(F)F)NCCO3)n1` [Example 154, Propan-2-yl 3-[6-(difluoromethoxy)-3,4-dihydro-2H-1,4-benzoxazin-7-yl]-4-[pyrazolo[1,5-a]pyrimidine-3-amido]-1H-pyrazole-1-carboxylate]: the results for the Ki in test [1] and in test [3] were 0.4 nM and 0.38 nM, respectively. In addition, the IC50 in test [2] was found to be 22 nM.
